Assay results reported in US10835533B2, “1 -((3S,4R)-4-(3-fluorophenyl)-1-(2-methoxyethyl)pyrrolidin-3-yl)-3-(4-methyl-3-(2-methylpyrimidin-5-yl)-1-phenyl-1H-pyrazol-5-yl)urea as a TrkA kinase inhibitor” (Array BioPharma Inc., priority 2014, dated 2020).

Assay: Liver microsomal clearance, dog
Type: in vitro ADME
Details: pH 7.4; Dog liver microsomes; 1 mg/mL; 20 minutes
Method: The predicted hepatic clearance (CLh) value was calculated by scaling the in vitro half-life (t1/2) for stability of the compound in liver microsomes (1 mg/mL; 20 minutes) using the physical and physiological scaling factors used to predict intrinsic clearance (CLint) and hepatic clearance (CLhep) listed in Table 2 and employed in the following equations: […]
where D is the amount of cytochrome P450-related protein per mass of liver, W is the average mass of liver present per weight of animal, C is the liver microsomal concentration, and Q is the species-dependent hepatic blood flow.
A 100 mM potassium phosphate assay buffer solution (KPB) was prepared as follows. Both KH2PO4 and K2HPO4 were dissolved separately in reagent grade water resulting in final concentrations 100 mM. A 75:25 mixture v/v of K2HPO4:KH2PO4 was prepared and the pH of the solution was adjusted to 7.4 using diluted HCl or diluted NaOH solutions. Stock solutions of Compound 1, Compound 2 and Compound 3 were prepared at 10 mM (active compound) in DMSO. The stock solution was diluted immediately before use to 2.5 μM using the KPB solution to create the working standard. All test compounds were completely soluble in DMSO by visual inspection at room temperature. The NADPH-regenerating solution (NRS) was prepared on the day of analysis by diluting one volume of 17 mg/mL NADP^+ with one volume of 78 mg/mL glucose-6-phosphate (both prepared in KPB, pH 7.4) and 7.9 volumes of 20 mM MgCl2. The final concentrations of NADP^+ and glucose-6-phosphate were 1.7 mg/mL and 7.8 mg/mL, respectively. […]
All calculations were performed using BioAssay Enterprise. The mean peak area ratios were calculated by averaging the peak area ratios (n=2) of Compound 1, Compound 2, Compound 3, and the internal standard for each sample. Percent remaining was calculated by determining the ratio of the peak area ratio at each time point to the peak area ratio of the time-zero samples. The rate of loss of test compound (km) was determined by linear regression of −ln(f(t)) versus time. […] The t1/2 was determined dividing ln(2) by km. […]

Row | CLhep predicted at 1 μM [mL/min/kg] | Compound
1 | 24 | COCCN1C[C@@H](NC(=O)Nc2c(C)c(-c3cnc(C)nc3)nn2-c2ccccc2)[C@H](c2cccc(F)c2)C1 [Compound 1, 1-((3S,4R)-4-(3-fluorophenyl)-1-(2-methoxyethyl)pyrrolidin-3-yl)-3-(4-methyl-3-(2-methylpyrimidin-5-yl)-1-phenyl-1H-pyrazol-5-yl)urea]
2 | 26 | COCCN1C[C@@H](NC(=O)Nc2c(C)c(-c3cnc(C)nc3)nn2-c2ccccc2)[C@H](c2ccc(F)c(F)c2)C1 [Compound 2, 1-((3S,4R)-4-(3,4-difluorophenyl)-1-(2-methoxyethyl)pyrrolidin-3-yl)-3-(4-methyl-3-(2-methylpyrimidin-5-yl)-1-phenyl-1H-pyrazol-5-yl)urea]
3 | 23 | COCCN1C[C@@H](NC(=O)Nc2c(C)c(-c3cnn(C)c3)nn2-c2ccccc2)[C@H](c2ccc(F)cc2)C1 [Compound 3, 1-(1′,4-dimethyl-1-phenyl-1H,1′H-[3,4′-bipyrazol]-5-yl)-3-((3S,4R)-4-(4-fluorophenyl)-1-(2-methoxyethyl)pyrrolidin-3-yl)urea]
